# Laboratory results from US20200323793A1, “COMBINATION THERAPY COMPRISING A POLYUNSATURATED KETONE AND A CALCINEURIN INHIBITOR” (Avexxin AS, priority 2016, published 2020).
# What was measured:
# [1] = tested on: skin keratinocyte cell line HaCaT; experiment: Resazurin assay, HaCaT proliferation and viability, Example 1 (24 hours of treatment); assay type: cell-based; details: Homo sapiens, 25 μM alone, read-out: reduction of proliferation and viability of HaCaT cells
# Description: (§1) The spontaneously immortalized, nontumorigenic skin keratinocyte cell line HaCaT was maintained in DMEM supplemented with 5% (v/v) FBS, 0.3 mg/ml glutamine and 0.1 mg/ml gentamicin at 37° C. with 5% CO2 in a humidified atmosphere. Subculture using trypsin-EDTA was performed every 3-4 days with split ratio of 1:3-1:4 to ensure actively proliferating cells.
# Cells were seeded in 96 well plates in fully supplemented medium at a density of 2500 cells per well. Following 72 hours of cultivation, the cells were starved of serum in 0.25% FBS/DMEM overnight to halt proliferation, synchronize and to increase cell sensitivity to treatment. On day 4, the cells were treated with cPLA2α inhibitor Compound A1 and immunomodulator Pimecrolimus (Karebay Biochem # Ki0907) and left to incubate for […] in incubator at 37° C. with 5% CO2 in a humidified atmosphere before fluorescence was read at 544 nm excitation and 590 nm emission wavelength. The cells were observed under the microscope to evaluate possible morphology changes and signs of stress before addition of resazurin. The experiments were performed in series of 8 wells per treatment and repeated 2-3 times.
# [2] = tested on: skin keratinocyte cell line HaCaT; experiment: Resazurin assay, HaCaT cell viability, Example 2 (48 hours of treatment); assay type: cell-based, human; details: each alone, dose response over 48 hours
# Description: as §1
# Cells were seeded in 96 well plates in fully supplemented medium at a density of 3000 cells per well. Following 72 hour of cultivation, the cells were starved of serum in 0.25% FBS/DMEM overnight to halt proliferation, synchronize the cells and to increase cell sensitivity to treatment. Next day, the cells were treated with Compound A1 and calcineurin inhibitor Pimecrolimus for 48 hours. Resazurin was added according to the manufacturer's instruction (RnD Systems, UK) and left to incubate for […] in incubator at 37° C. with 5% CO2 in a humidified atmosphere before fluorescence was read at 544 nm excitation and 590 nm emission wavelength. The cells were observed under the microscope to evaluate possible morphology changes and signs of stress before addition of resazurin. The experiments were performed in series of 8 wells per treatment.
smiles,measurement,setting,value
CC[C@@H]1/C=C(\C)C[C@H](C)C[C@H](OC)[C@H]2O[C@@](O)(C(=O)C(=O)N3CCCC[C@H]3C(=O)O[C@H](/C(C)=C/[C@@H]3CC[C@H](Cl)[C@H](OC)C3)[C@H](C)[C@@H](O)CC1=O)[C@H](C)C[C@@H]2OC [Pimecrolimus],cytotoxicity at 25 µM,[1],~15%
same,activity against viability of the cells (dose response),[2],active inhibitors
